Values joined by “and” are separate entries in the source; they are usually repeats but may differ in a detail not shown here. Identical values can stand only once.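 Tested at 5 concentrations; 48 h exposure; 96-well plates; endpoints linearly interpolated, else capped at highest concentration. The concentration for 50% growth inhibition is given as GI50. TGI: total growth inhibition.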
Assays:
Test in all cases: NCI tumour cell line growth inhibition, 48 h
K-562 leukemia = tested on: K-562 leukemia
RXF 393 renal = tested on: RXF 393 renal
DU-145 prostate = tested on: DU-145 prostate
EKVX NSCLC = tested on: EKVX NSCLC
NCI-H226 lung = tested on: NCI-H226 lung
MDA-MB-435 = tested on: MDA-MB-435
HCT-116 colon = tested on: HCT-116 colon
CCRF-CEM leukemia = tested on: CCRF-CEM leukemia
SK-OV-3 ovarian = tested on: SK-OV-3 ovarian
A549 NSCLC = tested on: A549 NSCLC
NCI-H460 lung = tested on: NCI-H460 lung

| Compound | TGI (K-562 leukemia) | TGI (RXF 393 renal) | TGI (DU-145 prostate) | TGI (EKVX NSCLC) | TGI (NCI-H226 lung) | TGI (MDA-MB-435) | TGI (HCT-116 colon) | TGI (CCRF-CEM leukemia) | TGI (SK-OV-3 ovarian) | TGI (A549 NSCLC) | TGI (NCI-H460 lung) | GI50 (RXF 393 renal) | GI50 (NCI-H460 lung) | GI50 (K-562 leukemia) | GI50 (DU-145 prostate) | GI50 (EKVX NSCLC) | GI50 (HCT-116 colon) | GI50 (CCRF-CEM leukemia) | GI50 (A549 NSCLC) |
| --- | --- | --- | --- | --- | --- | --- | --- | --- | --- | --- | --- | --- | --- | --- | --- | --- | --- | --- | --- |
| C[C@@H](CC(O)C(O)C(C)(C)O)C1CCC23CC12CCC1[C@@]2(C)CCC(O)C(C)(C)C2CC(OC2OC(CO)C(O)C(O)C2O)[C@]13C (some centres undefined) | > 10 µM | > 10 µM | > 10 µM | > 10 µM | > 10 µM | > 10 µM | > 10 µM | > 10 µM | > 10 µM | > 10 µM | > 10 µM |  |  |  |  |  |  |  |  |
| CS(=O)(=O)N1CC(CCl)c2ccc(NO)cc21 (centres undefined) | 8.58 µM | 10.9 µM | > 100 µM | 32.5 µM | > 78 µM | 35.4 µM | 32 µM | 5.1 µM | > 31.6 µM | > 100 µM | 34.4 µM |  |  |  |  |  |  |  |  |
| Cn1c(=O)c2[nH]c(N=O)nc2n(C)c1=O | > 100 µM | > 100 µM | > 100 µM | > 100 µM | > 100 µM | > 100 µM | > 100 µM |  | > 100 µM | > 100 µM | > 100 µM |  |  |  |  |  |  |  |  |
| CNC(=O)c1n[nH]n(C2CCCCC2)c1=S | > 100 µM | > 100 µM | > 100 µM | > 100 µM | > 100 µM | > 100 µM | > 100 µM | > 100 µM | > 100 µM | > 100 µM | > 100 µM |  |  |  |  |  |  |  |  |
| COc1nc(N=P(c2ccccc2)(c2ccccc2)c2ccccc2)cc(=O)n1C | > 100 µM | > 100 µM | > 100 µM | > 100 µM | > 100 µM | > 100 µM | > 100 µM | > 100 µM | > 100 µM | > 100 µM | > 100 µM |  |  |  |  |  |  |  |  |
| O=c1[nH]/c(=C/c2ccc3c(c2)OCO3)c(=O)[nH]/c1=C/c1ccc2c(c1)OCO2 | > 10 µM | > 10 µM | > 10 µM | > 10 µM | > 10 µM | > 10 µM | > 10 µM | > 10 µM | > 10 µM | > 10 µM | > 10 µM |  |  |  |  |  |  |  |  |
| O=C1N/C(=N\N=C\c2ccccc2)C(c2ccccc2)O1 (centres undefined) | > 100 µM | > 100 µM | > 100 µM | > 100 µM | > 100 µM | > 100 µM | > 100 µM | 49.4 µM | > 100 µM | > 100 µM | > 100 µM |  |  |  |  |  |  |  |  |
| CCN(CC)CCCNc1c2c(Cl)cc(Cl)cc2nc2nc(=O)[nH]c(C)c12 | > 100 µM | > 100 µM | > 100 µM | > 100 µM | > 100 µM | 49.2 µM | 36.9 µM | > 100 µM | 58 µM | > 100 µM | 37.1 µM |  |  |  |  |  |  |  |  |
| CC1=CC(=O)CC2(C)CCC(C(C)CC(=O)CC(C)C)CC12OO (centres undefined) | 75 µM and 31.9 µM | 26.2 µM and > 100 µM | 32.3 µM and 29.5 µM | 36.8 µM and 34.3 µM | 43.5 µM and 37.7 µM | 31.3 µM and 34.2 µM | 30.2 µM and 29.7 µM | 59.8 µM and 46.6 µM |  | 30 µM and 31.1 µM | 25.1 µM and > 100 µM | 12.5 µM and 32.6 µM | 11.6 µM and 31 µM |  |  |  |  |  |  |
| NS(=O)(=O)c1ccc(NC(=O)N/N=C/c2ccccc2O)cc1 | > 100 µM | > 100 µM | > 100 µM | > 100 µM | > 100 µM | 55.6 µM | > 100 µM | > 100 µM | > 100 µM | > 100 µM | > 100 µM |  |  |  |  |  |  |  |  |
| COC1(CC[C@@H](C)COC2OC(CO)C(O)C(O)C2O)O[C@H]2C[C@H]3[C@@H]4CC=C5C[C@@H](OC6OC(CO)C(OC7OC(C)C(O)C(O)C7O)C(O)C6OC6OC(C)C(O)C(O)C6O)CC[C@]5(C)[C@H]4CC[C@]3(C)[C@H]2[C@@H]1C (some centres undefined) | 16 µM | 5.45 µM | 4.17 µM | 33.3 µM | 15.3 µM | 4.18 µM | 10.4 µM | 20.2 µM | 3.09 µM | 4.22 µM | 5.43 µM | 1.92 µM | 1.62 µM | 5.12 µM | 1.92 µM | 10 µM | 1.96 µM | 7.6 µM | 1.55 µM |
| Clc1ccc(Cl)c(N=Nc2cc3c4c(c2)CCN4CCC3)c1 | > 10 µM | > 10 µM | > 10 µM | > 10 µM | > 10 µM | > 10 µM | > 10 µM | > 10 µM | > 10 µM | > 10 µM | > 10 µM |  |  |  |  |  |  |  |  |
| FC(F)(F)c1ccccc1C1SCC2=Nc3ccccc3CN21 (centres undefined) | > 100 µM | 22 µM | 25.4 µM | 24.9 µM | 26.7 µM | 93.1 µM | 23.1 µM | 95 µM | 42 µM | 27.6 µM | 31.8 µM |  |  |  |  |  |  |  |  |
| O=C1CN(c2ccccc2)Cc2nc(Cl)ccc2N1 | > 100 µM | > 100 µM | > 100 µM | > 100 µM | > 100 µM | > 100 µM | > 100 µM | > 100 µM | > 100 µM | > 100 µM | > 100 µM |  |  |  |  |  |  |  |  |
| CCCCOCCOCCOC1=CC(=O)c2c(O)ccc(O)c2C1=O | 6.25 µM | 3.63 µM | 3.1 µM | > 10 µM | 3.59 µM | 0.356 µM | 3.22 µM | 6.01 µM | > 10 µM | 3.43 µM | 3.69 µM |  |  |  |  |  |  |  |  |
| CC(=O)CCCCn1c(=O)c2c(nc(Br)n2C)n(C)c1=O | > 100 µM | > 100 µM | > 100 µM | 84.1 µM | > 100 µM | > 100 µM | > 100 µM | > 100 µM | > 100 µM | > 100 µM | > 100 µM |  |  |  |  |  |  |  |  |
